Results published in patent publication US20130023504A1, “Modulation of Prostaglandin/Cyclooxygenase Metabolic Pathways” (HUNTER-FLEMING LIMITED, priority 2006, published 2013).
Where “and” joins values, the source holds several entries; their conditions need not be identical. Identical values can stand only once.

System: rat sensory neurones
Assay: Cisplatin-induced loss of neurite density in primary dorsal root ganglia sensory neurones (anti β-Tubulin)
Assay type: cell-based
Settings: for % Control without cisplatin (neurite length) / Mean neurite length: cisplatin 3 μg/ml
Protocol: Primary cultures of dissociated dorsal root ganglia sensory neurones were incubated with 3 μg/ml cisplatin, with and without 7β-OH EPIA for 48 hours and 72 hours and the following parameters were evaluated:
neurite network density stained with an anti 8-Tubulin antibody
Rat sensory neurones were prepared according to the method described by Hall et al 1997 [Hall et al. (J. Neurosci. 1997 Apr. 15; 17(8); 2775-84]. Briefly, a female rat (15 days gestation) was killed by cervical dislocation (Rats Wistar; Janvier, Le Genest-St-lsle, France) and the foetuses removed from the uterus. Their spinal cords with the dorsal root ganglia (DRG) were removed and placed in ice-cold medium of Leibovitz (L15, Fisher 11415-049) containing Penicillin 50 UI/ml-Streptomycin 50 μg/ml (PS, 1%) and bovine serum albuminutes (BSA 1%, Sigma A6003). The DRG were recovered and dissociated by trypsinisation for 20 minutes at 37° C. (trypsin EDTA 10×, 10%, Fisher 15400054) diluted in PBS without calcium and magnesium (Fisher 2007-03). The reaction was stopped by addition of Dulbecco modified Eagle medium (DMEM, Fisher 21969-035) containing DNase I grade II (0.1 mg/ml Roche diagnostic 104159) and foetal bovine serum (FBS 10%, Fisher 10270-098). The cell suspension was triturated with a 10 ml pipette and centrifuged at 350×g for 10 minutes at room temperature. The pellet of dissociated cells was then resuspended in defined culture medium.
Viable cells were counted in a Neubauer cytometer using the trypan blue exclusion test (Sigma) and seeded at a density of 30 000 cells/well in 96 well-plates (Nunc). Wells were pre-coated with poly-L-lysine (10 μg/ml, Sigma P2636) in ultra pure sterile water (Merck Eurolab 60759.01).
Cells were allowed to adhere for 2 h and maintained in a humidified incubator at 37° C. in 5% CO2/95% air atmosphere.
After 5 days of culture, the culture medium was changed into a defined culture medium following the different conditions described below:
Test compound 7β-OH EPIA (1 nM, 10 nM and 100 nM)+cisplatin (3 μg/ml)
Reference compound NGF (10 ng/ml)+cisplatin (3 μg/ml)
Six wells per condition were carried out to assess neuronal survival. After 48 hours and 72 hours of incubation, the neuronal cells were fixed for 5 minutes in an ethanol/acetic acid solution (95%/5%) at −20° C. and rinsed 3 times in PBS.
Cell bodies of sensory neurones were labelled by monoclonal anti MAP-2 antibody (Sigma M4403) and the neurite of sensory neurones were labelled by monoclonal β-Tubulin antibody (Sigma T8660). These antibodies were diluted at 1:400 in incubation solution (PBS with 5% of FCS and 0.1% of saponin, Sigma S-7900). These antibodies specifically label neurone cell bodies and neuritis, respectively.
After 2 hours of incubation, the cells were washed in PBS and incubated with Alexa Fluor 488 goat anti mouse IgG (Molecular Probes A11001) diluted at 1:300 in incubation solution to reveal the MAP-2 and the β-Tubulin antibodies. Cell nuclei were stained with a fluorescent marker (Hoechst staining solution, SIGMA H6024, 1 μg/ml in incubation solution during 1 hour).
For each condition, 2 pictures per well (12 pictures per condition) were taken using In Cell Analyzer 1000 (Amersham Biosciences) controlled by the computer software In Cell Analyzer 1000 3.2. For the MAP-2 labelling, the magnification was ×10, for the β-Tubulin labelling, the magnification was ×20. For each labelling, all the images were taken in the same conditions.
Analysis of the number of cell bodies labelled with anti-MAP-2 antibodies, and total length of neurites labelled with anti β-Tubulin antibodies, were carried out using In Cell Analyzer 1000 3.2.Workstation software. The results were expressed in percentage compared to the vehicle. The comparisons of each group were carried out using the unpaired T test.

CC12CCC3C(C1CCC2=O)[C@@H](O)C[C@H]1C[C@@H](O)CCC31C (stereo partly drawn) [Compound 7β-OH-EPIA, 7β-hydroxy-EPIAndrosterone]
reduction of cisplatin-induced toxicity (neurite loss) (1 nM, 48 hours): 90.7% | reduction of cisplatin-induced toxicity (neurite loss) (1 nM, 72 hours): 70.8% | % Control without cisplatin (neurite length) (1 nM, 48 hours): 99% | Mean neurite length (1 nM, 48 hours): 5378 μm and 5377.89 μm | % Control without cisplatin (neurite length) (1 nM, 72 hours): 93% | Mean neurite length (1 nM, 72 hours): 4948 μm and 4947.99 μm | reduction of cisplatin-induced toxicity (neurite loss) (10 nM, 48 hours): 101% | % Control without cisplatin (neurite length) (10 nM, 48 hours): 102% | Mean neurite length (10 nM, 48 hours): 5549 μm and 5549.41 μm | % Control without cisplatin (neurite length) (10 nM, 72 hours): 80% | Mean neurite length (10 nM, 72 hours): 4275.04 μm | % Control without cisplatin (neurite length) (100 nM, 48 hours): 81% | Mean neurite length (100 nM, 48 hours): 4442.51 μm | % Control without cisplatin (neurite length) (100 nM, 72 hours): 77% | Mean neurite length (100 nM, 72 hours): 4080.89 μm
